Experimental data published in patent US11370775B2, “Substituted benzimidazole derivatives as D-amino acid oxidase (DAAO) inhibitors” (NATIONAL TAIWAN UNIVERSITY, priority 2016, dated 2022).

Columns and labels:
porcine kidney DAO = target: T1, porcine kidney DAO (Sus scrofa, UniProt P00371); test: pkDAO enzymatic assay (porcine kidney DAO IC50 assay); format: biochemical; conditions: D-alanine substrate, pH 8.3, 37° C., without FAD
T1 construct: purchased Sigma-Aldrich; host or cells: porcine kidney
Procedure: The DAAO enzymatic activity assay was modified according to the report of Oguri et al (Oguri, S., Screening of d-amino acid oxidase inhibitor by a new multi-assay method. Food chemistry 2007, 100 (2), 616). The DAAO activity was measured by using substrate D-alanine reaction produced hydrogen peroxide (H2O2) to further react with 3-(4-hydroxyphenyl) propionic acid (HPPA). The HPPA were oxidized by H2O2 and peroxidase to become the fluorogenic dimer which was measured to represent the activity of DAAO.
For porcine kidney DAO IC50 assay, the DAO substrate was prepared in 50 mM D-alanine (dissolved in 0.2 M Tris-HCl buffer, pH 8.3). A 100 μl of D-alanine solution was mixed with 4 μl (in 100% dimethyl sulfoxide, DMSO) of different concentrations of candidate compounds shown in tables below ranging from 48.83 μM, 97.66 μM, 195.31 μM, 390.63 μM, 781.25 μM, 1.56 mM, 3.13 mM, 6.25 mM, 12.50 mM, 25.00 mM, and 50.00 mM, with a final DMSO concentration of 0.167% in each reaction concentration. 10 μl of D-alanine and candidate compound mixture was incubated with 220 μl of Reaction Master Mix in black 96 well plate at 37° C. for 5 minutes. The Reaction Master Mix contained 110 μl of 5 U/mL porcine kidney DAO (Sigma-Aldrich, USA) solution (dissolved with 0.2 M Tris-HCl buffer, pH 8.3), 1.1 mL of 15 U/mL peroxidase solution (dissolved with 0.2 M Tris-HCl buffer, pH 8.3), 1.1 mL of 20 mM HPPA solution (dissolved with 0.2 M Tris-HCl buffer, pH 8.3), and 22 ml of 2 M Tris-HCl buffer (pH 8.3) for 110 reaction assays.
Fluorescence intensity (Fs) was measured at 405 nm by irradiation excitation at 320 nm. The higher the DAO enzymatic activity was, the higher the fluorescence intensity. The fluorometric inhibition indicator (Fi) was obtained from the following equation: Fi=(Fs-FDrug)/(FDMSO), where the fluorescent drug blank (FDrug) was measured in the drug mixture solution (using 0.2 M Tris HCl buffer, pH 8.3, without D-alanine). A DMSO blank (FDMSO) was measured under a 100% DMSO solution.
Although FAD is generally included in the reaction mixture in the D-amino acid oxidase assay since it easily dissociates from the holoenzyme, the present method was performed without FAD. The inhibitory effect of DAO inhibitors was compared by using inhibitory concentrations leading to 50% inhibition of DAAO activity (IC50). The IC50 values were calculated by nonlinear regression model using GraphPad Prism, version 5(GraphPad Software, Inc., La Jolla, Calif.).

[1] = target: T2, DAO in SK-N-SH neuroblastoma cells (Homo sapiens, UniProt P14920); test: Cell-based DAO assay in SK-N-SH cells; parameters: key to Relative DAO activity normalize to DMSO at Final Conc. 100 uM / Relative DAO activity normalize to DMSO at Final Conc. 10 uM: fraction of DMSO-control DAO activity (1 = DMSO); conditions: SK-N-SH 1.25*10^5 cells/well, drug treated for 3.5 hr; for IC50: 50 mM D-serine
T2 construct: endogenous in cells; host or cells: SK-N-SH neuroblastoma cells (ATCC)
Procedure: The SK-N-SH neuroblastoma cell line was purchased from American Type Culture Collection (ATCC). It was cultured in MEM media (Invitrogen/GIBCO, Rockville, Md.) supplemented with 10% fetal bovine serum, 1×NEAA (Invitrogen/GIBCO) at 37° C. with 5% CO2 in a humidified atmosphere. Cells were trypsinized and plated into a black 96-well plate (NUNC No. 237108) at a density of 125,000 cells/well in 50 μl before cell-based DAO assay.
The cellular DAO activity assay was using a method modified according to the report of Brandish et al. (Brandish, P. E., et al., A cell-based ultra-high-throughput screening assay for identifying inhibitors of D-amino acid oxidase. J Biomol Screen, 2006. 11(5): p. 481-7). SK-N-SH cells were suspended in assay buffers of HANKS buffer solution (Invitrogen/GIBCO No. 14025-092) with 20 mM HEPES. D-serine of (final concentration 50 mM) was added in each well as the substrate for DAO enzyme. The Amplex Red Hydrogen Peroxide/Proxidase Assay Kit (Molecular Probes/Invitrogen, cat. A22188) was used to measure H2O2 production which diffused across the cell membrane into the assay medium after DAO reaction. After seeding cells into black 96-well plate (Nunc No. 237108, Denmark), 50 μl of SK-N-SH cells (125,000 cells/well) was mixed with 50 μl drug solution (2.5 fold of interesting final concentration) and incubate at 37° C. with 5% CO2 in a humidified atmosphere for 30 minutes. After 30 minutes later, 25 μl of a 5 fold mixture containing D-serine, horseradish peroxidase (HRP), and Amplex Red was added into wells containing 100 μl of cell-drugs mixture and incubated at 37° C. with 5% CO2 in a humidified atmosphere for 3 hours. The final concentration of DMSO is below 1%. The fluorescence signal was then detected in SpectraMax M2e microplate reader (Molecular Devices, USA) with excitation at 544 nm and emission at 590 nm. The optimized assay buffer contained a final concentration of 50 mM D-serine, 0.625 units HRP, and 50 μM Amplex Red in a 125 μl assay volume.

T1 sequence (P00371 whole entry): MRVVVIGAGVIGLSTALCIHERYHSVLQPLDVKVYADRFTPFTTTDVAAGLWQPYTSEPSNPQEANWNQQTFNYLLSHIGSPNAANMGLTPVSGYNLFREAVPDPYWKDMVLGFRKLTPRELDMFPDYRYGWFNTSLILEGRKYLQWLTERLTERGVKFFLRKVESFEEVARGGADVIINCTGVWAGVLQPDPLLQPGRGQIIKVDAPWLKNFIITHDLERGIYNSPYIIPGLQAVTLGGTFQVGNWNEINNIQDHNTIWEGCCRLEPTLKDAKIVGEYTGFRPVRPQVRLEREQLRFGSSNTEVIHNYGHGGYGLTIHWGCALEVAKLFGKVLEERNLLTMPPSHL
T2 sequence (P14920 whole entry): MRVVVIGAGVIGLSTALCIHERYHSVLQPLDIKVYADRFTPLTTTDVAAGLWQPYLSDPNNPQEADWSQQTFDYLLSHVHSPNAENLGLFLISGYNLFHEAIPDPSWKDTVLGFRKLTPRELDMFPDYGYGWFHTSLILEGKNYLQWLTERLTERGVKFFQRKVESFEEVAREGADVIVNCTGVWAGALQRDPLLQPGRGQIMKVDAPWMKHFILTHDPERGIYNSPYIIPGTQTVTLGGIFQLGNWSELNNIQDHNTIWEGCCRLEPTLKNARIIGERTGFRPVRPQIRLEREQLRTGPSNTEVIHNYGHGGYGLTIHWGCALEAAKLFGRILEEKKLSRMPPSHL

Row | SMILES | IC50 (porcine kidney DAO) | Relative DAO activity normalize to DMSO at Final Conc. 10 uM [1] | Relative DAO activity normalize to DMSO at Final Conc. 100 uM [1] | IC50 [1]
1 | COc1c(C)cnc(C[S+]([O-])c2nc3cc(OC(=O)C4CCC4)ccc3[nH]2)c1C (stereo not drawn) [compound 25027, 2-(((4-methoxy-3,5-dimethylpyridin-2-yl)methyl)sulfinyl)-1H-benzo[d]imidazol-5-yl cyclobutanecarboxylate] | 21 µM | 1.15 | 0.69 | 240 µM
2 | COc1c(C)cnc(C[S+]([O-])c2nc3cc(OC(=O)C4CC4)ccc3[nH]2)c1C (stereo not drawn) [compound 28092, 2-(((4-methoxy-3,5-dimethylpyridin-2-yl)methyl)sulfinyl)-1H-benzo[d]imidazol-5-yl cyclopropanecarboxylate] | 46.7 µM | 0.94 | 0.58 | 136 µM
3 | COc1c(C)cnc(C[S+]([O-])c2nc3cc(OC(C)=O)ccc3[nH]2)c1C (stereo not drawn) [compound 21122, 2-(((4-methoxy-3,5-dimethylpyridin-2-yl)methyl)sulfinyl)-1H-benzo[d]imidazol-5-yl acetate] | 21.1 µM | 0.99 | 0.50 | 149 µM
4 | COC(=O)c1ccc2c(c1)N=C(N(Cc1ncc(C)c(OC)c1C)Cc1ncc(C)c(OC)c1C)N(Cc1ccco1)C2 [compound 26072, Methyl 2-(bis((4-methoxy-3,5-dimethylpyridin-2-yl)methyl)amino)-3-(furan-2-ylmethyl)-3,4-dihydroquinazoline-7-carboxylate] | 236 µM | 0.87 | 0.74 | 393 µM
5 | COc1c(C)cnc(C[S+]([O-])c2nc3cc(OP(=O)(Oc4ccccc4)Oc4ccccc4)ccc3[nH]2)c1C (stereo not drawn) [compound 13084, 2-(((4-methoxy-3,5-dimethylpyridin-2-yl)methyl)sulfinyl)-1H-benzo[d]imidazol-5-yl diphenyl phosphate] | 181 µM | 0.71 | 0.49 | 34.9 µM
6 | O=c1[nH]oc2ccc(Cl)cc12 [CBIO, reference compound] | 0.583 µM | 1.00 | 0.83 | 392 µM
